Target: T1, human thrombopoietin receptor (c-mpl) (Homo sapiens, UniProt P40238)
T1 construct: expressed in transfected cells
T1 sequence (P40238 26-635): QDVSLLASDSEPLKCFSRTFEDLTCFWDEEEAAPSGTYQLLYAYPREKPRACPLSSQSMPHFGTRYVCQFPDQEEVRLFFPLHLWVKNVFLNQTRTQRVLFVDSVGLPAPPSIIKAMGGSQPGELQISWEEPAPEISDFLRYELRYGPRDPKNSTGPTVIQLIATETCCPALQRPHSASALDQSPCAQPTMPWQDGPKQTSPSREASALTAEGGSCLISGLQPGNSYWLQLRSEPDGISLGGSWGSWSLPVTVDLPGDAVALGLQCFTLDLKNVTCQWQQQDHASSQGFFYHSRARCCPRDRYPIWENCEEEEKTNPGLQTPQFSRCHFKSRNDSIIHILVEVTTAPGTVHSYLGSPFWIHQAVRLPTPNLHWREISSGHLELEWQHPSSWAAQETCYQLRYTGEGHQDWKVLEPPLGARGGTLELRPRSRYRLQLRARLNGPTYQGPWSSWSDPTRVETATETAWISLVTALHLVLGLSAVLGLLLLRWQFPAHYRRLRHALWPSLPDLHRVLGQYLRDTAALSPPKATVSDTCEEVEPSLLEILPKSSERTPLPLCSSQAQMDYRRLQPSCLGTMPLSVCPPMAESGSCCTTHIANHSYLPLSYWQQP
Experiment: Stimulation of proliferation of thrombopoietin-dependent cell line UT7/EPO-mpl (WST-8)
Format: cell-based
Settings: human leukemic cell line UT-7/EPO-mpl, 4 days incubation, WST-8, absorbance at 450 nm; read-out: EC50 (concentration that yields a growth rate corresponding to 50% of the growth observed in the presence of 10 ng/mL TPO) (converted)
Description: The responses of thrombopoietin receptor to the compounds of the present invention prepared in the Synthetic Examples were assayed using a human leukemic cell line, UT7/EPO-mpl.
UT7/EPO-mpl is a stable transformed cell line obtained by introducing into human leukemic cell line UT7/EPO a vector that induces expression of human thrombopoietin receptor (c-mpl) under control of cytomegalovirus immediate-early promoter by the method of Takatoku et al. (J. Biol. Chem., 272:7259-7263 (1997)). […] These two cell lines were subcultured in IMDM (GIBCO) containing 10% fetal bovine serum (Thermo Electron or BioWest) using a CO2 incubator (5% CO2, 37° C.).
The subcultured cells described above were washed twice with PBS and suspended in IMDM containing 10% fetal bovine serum at a cell density of 6×10^4 cells/ml. The cell suspension was transferred to a 96-well tissue culture plate (CORNING) in 100-μl aliquots. Then either thrombopoietin (Pepro Tech EC) or the compounds of the Synthetic Examples dissolved in dimethyl sulfoxide were diluted 83-fold with IMDM containing 10% fetal bovine serum and added to the aforementioned cell suspension in 20-μl aliquots. The cell suspension was incubated in a CO2 incubator (5% CO2, 37° C.) for 4 days. […] The formazan pigment generated was detected by measuring the absorbance at 450 nm with a 96-well microplate reader (Nihon Molecular Devices, Spectramax 190). […]

EC50: 71.9 nM
Structure (SMILES): CCOC(=O)CN1CCN(C(=S)NNC(C)=C2C(=O)N(c3ccc(C(C)(C)C)cc3)N=C2C)CC1 [Example 7]

Source: patent US8093251B2, “Nitrogen-containing heterocyclic compounds and thrombopoietin receptor activators” (Nissan Chemical Industries, Ltd., priority 2006, dated 2012)
